Laboratory results from US20130280212A1, “INHIBITORS OF CYTOCHROME P450” (GILEAD SCIENCES, INC, priority 2010, published 2013).
Like-named read-outs stand apart in the source and are kept apart here.

Molecular target: T1, CYP3A4 (Homo sapiens, UniProt P08684)
T1 construct: Pooled (n≧15 donors) human hepatic microsomal fraction was obtained from BD-Gentest; tissue BD-Gentest (Woburn, Mass.); host or cells: pooled human liver microsomes (n≧15 donors)
Test: CYP3A inhibition assay in pooled human hepatic microsomal fraction (midazolam 1-hydroxylase and testosterone 6β-hydroxylase activities)
Format: biochemical
Details: human hepatic microsomes
Procedure: The initial mobile phase consisted of 94.9% water, 0.1% formic acid, and 5% acetonitrile (v/v/v) pumped at 0.5 mL/min. After 0.5 min the acetonitrile concentration was increased to 30% over 0.5 min. The acetonitrile concentration was then further increased to 100% over 0.5 min and held for 1.3 min, after which the column was re equilibrated at the initial conditions for 1.2 min. Rates of metabolite formation were determined from standard curves using PAR determined with authentic metabolite standards.

[1] = probe activity midazolam 1-hydroxylase, read-out: CYP3A4 IC50 (μM) (midazolam)
[2] = probe activity testosterone 6β-hydroxylase, substrate 50 μM, read-out: CYP3A4 IC50 (μM) (testosterone)

T1 sequence (P08684 2-503): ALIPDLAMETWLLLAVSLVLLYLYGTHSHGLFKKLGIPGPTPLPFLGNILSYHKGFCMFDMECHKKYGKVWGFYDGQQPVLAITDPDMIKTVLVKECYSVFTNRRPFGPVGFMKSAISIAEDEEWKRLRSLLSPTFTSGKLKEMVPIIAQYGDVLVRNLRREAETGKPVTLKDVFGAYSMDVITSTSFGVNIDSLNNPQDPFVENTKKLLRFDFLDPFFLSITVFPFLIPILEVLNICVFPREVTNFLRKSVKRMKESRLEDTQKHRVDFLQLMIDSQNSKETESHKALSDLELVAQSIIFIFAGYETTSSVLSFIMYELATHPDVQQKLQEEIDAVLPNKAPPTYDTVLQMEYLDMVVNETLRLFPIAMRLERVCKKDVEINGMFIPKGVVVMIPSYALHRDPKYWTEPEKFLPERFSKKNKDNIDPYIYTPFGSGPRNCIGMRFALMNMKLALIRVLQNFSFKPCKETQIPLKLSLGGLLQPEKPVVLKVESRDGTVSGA

Row | IC50 [1] [µM] | IC50 [2] [µM] | SMILES
1 | 0.25 | 0.71 | CC(C)CC(C)OC(=O)N[C@H](CC[C@H](Cc1ccccc1)NC(=O)OCc1cncs1)Cc1ccccc1 (some centres unmarked) [Compound 11]
2 | 0.2 | 0.5 | CCC(CC)OC(=O)N[C@H](CC[C@H](Cc1ccccc1)NC(=O)OCc1cncs1)Cc1ccccc1 [Compound 10]
3 | < 0.1 | 0.27 | CC(C)NC(=O)N[C@H](CC[C@H](Cc1ccccc1)NC(=O)OCc1cncs1)Cc1ccccc1 [Compound 14]
4 | 0.51 | 1.4 | CC[C@@H](C(=O)N[C@H](CC[C@H](Cc1ccccc1)NC(=O)OCc1cncs1)Cc1ccccc1)c1ccccc1 [Compound 6]
5 | < 0.1 | 0.41 | CCC(CC)NC(=O)N[C@H](CC[C@H](Cc1ccccc1)NC(=O)OCc1cncs1)Cc1ccccc1 [Compound 16]
6 | 0.12 | 0.27 | C[C@H]1CC[C@H](C(=O)N[C@H](CC[C@H](Cc2ccccc2)NC(=O)OCc2cncs2)Cc2ccccc2)CC1 [Compound 3]
7 | 0.38 | 0.4 | CC(C)CC(OC(=O)N[C@H](CC[C@H](Cc1ccccc1)NC(=O)OCc1cncs1)Cc1ccccc1)C(C)C (some centres unmarked) [Compound 12]
8 | 0.13 | 0.43 | CCC(C)OC(=O)N[C@H](CC[C@H](Cc1ccccc1)NC(=O)OCc1cncs1)Cc1ccccc1 (some centres unmarked) [Compound 9]
9 | < 0.1 | 0.38 | CC(C)OC(=O)N[C@H](CC[C@H](Cc1ccccc1)NC(=O)OCc1cncs1)Cc1ccccc1 [Compound 8]
10 | < 0.1 | 3.4 | CC(C)[C@H]1CC[C@H](C(=O)N[C@H](CC[C@H](Cc2ccccc2)NC(=O)OCc2cncs2)Cc2ccccc2)CC1 [Compound 4]
11 | < 0.1 | 0.34 | CCC(C)S(=O)(=O)N[C@H](CC[C@H](Cc1ccccc1)NC(=O)OCc1cncs1)Cc1ccccc1 (some centres unmarked) [Compound 18]
12 | 1.8 | > 25 | O=C(N[C@H](CC[C@H](Cc1ccccc1)NC(=O)[C@H]1CC[C@H](c2ccc(Cl)cc2)CC1)Cc1ccccc1)OCc1cncs1 [Compound 5]
13 | 0.4 | 0.54 | CC(CC(C)(C)C)OC(=O)N[C@H](CC[C@H](Cc1ccccc1)NC(=O)OCc1cncs1)Cc1ccccc1 (some centres unmarked) [Compound 13]
14 | < 0.1 | 0.32 | CC(C)S(=O)(=O)N[C@H](CC[C@H](Cc1ccccc1)NC(=O)OCc1cncs1)Cc1ccccc1 [Compound 17]
15 | < 0.1 | 0.36 | CC[C@H](C)C(=O)N[C@H](CC[C@H](Cc1ccccc1)NC(=O)OCc1cncs1)Cc1ccccc1 [Compound 7]
16 | < 0.1 | 0.25 | CCC(C)NC(=O)N[C@H](CC[C@H](Cc1ccccc1)NC(=O)OCc1cncs1)Cc1ccccc1 (some centres unmarked) [Compound 15]
